The source made the active and inactive calls.
Columns and labels:
Cytochrome P450 3A4 = Cytochrome P450 3A4 (Homo sapiens, UniProt P08684);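 note: CYP3A4 tested as one member of a cytochrome P450 panel screen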
fMet-Leu-Phe receptor = fMet-Leu-Phe receptor (Homo sapiens, UniProt P21462); assay: FPR ligands, dose response (AID 519); format: functional
[1] = off-target signal loss in HeLa-CEM21 co-culture – HeLa F-luc CTL cells, cherry-picked, counter-screen for HIV-1 Env fusion inhibitor project, dose response (AID 652040); format: functional, cell-based;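 note: potency for signal decrease marking cytotoxic or nonspecific inhibition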
[2] = ZM109 Env clade C HIV-1 fusion inhibitors, dose response, HeLa effector, CEM target cells, luciferase, cherry-pick (AID 652058); format: functional, cell-based
[3] = HepG2 cell cytotoxicity, dose response, cytotoxicity control, plate reader, cherry-pick, antagonist series (AID 743416); format: functional, cell-based
[4] = HepG2 cell cytotoxicity, dose response, cytotoxicity control for Shn3 inhibitor project, CellTiter-Glo, cherry-picked (AID 624134); format: functional, cell-based
[5] = MC4R antagonists, dose response, counter-screen for LGR2 antagonist project, cell-based, plate reader, cherry pick (AID 743444); format: functional;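 note: transfected HEK 293 cells stimulated with alpha-MSH peptide; potency of inhibitors of the alpha-MSH evoked signal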
[6] = inhibitors of HIV Env-driven cell fusion, dose response, cherry-pick (AID 652057); format: functional, cell-based
[7] = non-specific cell cytotoxicity, dose response, cytotoxicity control for PAX8 inhibitor project, plate reader, dry powder samples (AID 743021); format: functional, cell-based
[8] = inhibitors of PGC1a acetylation in cells, dose response, cell-based, cherry-picked samples (AID 720514); format: functional;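 note: potency may reflect raised or lowered acetylation signal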
[9] = CEM21 lymphoblast cell cytotoxicity, dose response, cytotoxicity control for viral fusion inhibitor project, CellTiter-Glo luminescence, cherry-picked (AID 652042); format: functional, cell-based;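 note: potency for signal decrease meaning cytotoxicity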
[10] = LGR2 antagonists, dose response, cell-based, HEK293, CRE-luciferase reporter, cherry pick, set 2 (AID 743343); format: functional;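 note: transfected cells were stimulated with diluted bursicon conditioned medium after compound addition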
[11] = inhibitors of clade B AD8 Env fusion, dose response, cell-based, cherry-pick (AID 652062); format: functional;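 note: luciferase signal from cell-cell fusion driven by HIV-1 clade B AD8 Env; potency is for inhibitors of fusion seen as a drop in luminescence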
Paired box protein Pax-8 = Paired box protein Pax-8 (Homo sapiens, UniProt Q06710); assay: inhibitors of PAX8-driven TPO luciferase reporter, dose response, RMG-I cells, cherry-pick (AID 687027); format: functional, cell-based;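 note: luciferase reporter driven by Pax8 target thyroperoxidase promoter measured by SteadyGlo luminescence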
[12] = Shn3 3'UTR reporter inhibitors, dose response, cell-based, Clone20 osteoblasts, firefly luciferase, cherry-picked (AID 624132); format: functional;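 note: firefly luciferase luminescence from reporter carrying the Shn3 3'UTR in osteoblasts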
Melanocortin receptor 4 = Melanocortin receptor 4 (Homo sapiens, UniProt P32245); assay: MC4R antagonist potency on cAMP, dose response, cell-based, TR-FRET, biased antagonists (AID 602298); format: functional;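 note: antagonist potency against agonist-stimulated cAMP production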
Jurkat = assay: antigen receptor-induced NF-kB inhibitors, dose response, Jurkat, luciferase reporter, luminescence, B- and T-cell (AID 489004); format: functional, cell-based; settings: Homo sapiens;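 note: NF-kB luciferase reporter Jurkat cells stimulated with PMA plus ionomycin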
[13] = molecular target: T1, Microphthalmia-associated transcription factor (Homo sapiens, UniProt O75030); assay: TRPM1 promoter luciferase signal decrease, dose response, MITF inhibitor project, cell-based, SK-MEL-5, cherry-picked, set 3 (AID 493073); format: functional
T1 sequence (O75030 whole entry): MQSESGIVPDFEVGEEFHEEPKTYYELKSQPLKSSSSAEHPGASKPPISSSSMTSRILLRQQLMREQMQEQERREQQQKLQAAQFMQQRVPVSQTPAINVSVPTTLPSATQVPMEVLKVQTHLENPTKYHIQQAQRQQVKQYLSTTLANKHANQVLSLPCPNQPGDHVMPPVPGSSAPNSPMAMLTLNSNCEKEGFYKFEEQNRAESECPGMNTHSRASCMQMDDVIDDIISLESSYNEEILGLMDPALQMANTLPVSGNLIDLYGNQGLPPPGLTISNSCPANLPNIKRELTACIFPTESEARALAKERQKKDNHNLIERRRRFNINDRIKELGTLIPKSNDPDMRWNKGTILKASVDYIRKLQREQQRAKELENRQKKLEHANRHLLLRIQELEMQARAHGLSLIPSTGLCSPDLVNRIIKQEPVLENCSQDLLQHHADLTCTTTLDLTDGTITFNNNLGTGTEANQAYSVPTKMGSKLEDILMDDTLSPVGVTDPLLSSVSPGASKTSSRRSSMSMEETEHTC

[14] = HEK293 cell cytotoxicity, dose response, cytotoxicity control, plate reader, cherry-picked samples (AID 743446); format: functional, cell-based
[15] = A549 cell cytotoxicity, dose response, cytotoxicity control, plate reader, cherry-pick, antagonist series (AID 743412); format: functional, cell-based
[16] = control 3'UTR Renilla luciferase suppression, dose response, counter-screen for Shn3 inhibitor project, cell-based, Clone20-Shn3RL, cherry-picked (AID 624133); format: functional
[17] = cytotoxicity in HEK-293T NF-kB-Luc cells, dose response, cytotoxicity control for B/T-cell NF-kB inhibitor project, cell-based, uHTS hits (AID 489019); format: functional;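 note: IC50 reflects cytotoxicity as loss of cell viability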
[18] = nonselective inhibitors of cellular cAMP signaling, dose response, counter-screen for MC4R biased antagonist project, cell-based, TR-FRET cAMP detection (AID 602305); format: functional;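 note: U2OS cells stimulated with forskolin near its EC80 as the cAMP inducer; potency is for inhibition of forskolin-stimulated cAMP signaling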
cells = format: functional, cell-based; settings: HEK-CNG
[19] = molecular target: Heat shock protein HSP 90-alpha (Homo sapiens, UniProt P07900); format: functional, organism-based
[20] = C. albicans growth with fluconazole, confirmation, fluorescence, retest (AID 2467); format: functional, cell-based
[21] = reduction of Shn3 3'UTR firefly luciferase signal, dose response, Schnurri-3 inhibitor project, cell-based, Clone20 osteoblasts, cherry-pick, set 2 (AID 720490); format: functional;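 note: actives lower the luminescence signal as inhibitors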
[22] = NIH-3T3 fibroblast cytotoxicity, dose response, cytotoxicity control, cell-based, fluorescence, Alamar Blue, secondary assay (AID 2327); format: functional;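 note: NIH-3T3 mouse fibroblasts cultured with fluconazole at 8 µg/mL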
Galanin receptor type 3 = Galanin receptor type 3 (Homo sapiens, UniProt O60755); assay: Fluorescence-based cell-based primary high throughput dose response assay to identify antagonists of the Galanin Receptor 3 (GalR3).; format: functional
[23] = cytotoxicity in HEK-293T cells, dose response, cytotoxicity control for TCR NF-kB inhibitor project, luminescence, T-cell screen hits (AID 489026); format: functional, cell-based;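 note: cells exposed to compound about 14 hours before the viability readout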
Caspase-6 = Caspase-6 (Homo sapiens, UniProt P55212); assay: human caspase-6 inhibitors, dose response, biochemical, VEID-R110 fluorescence, cherry-pick (AID 720632)
[24] = molecular target: T2, Histone-lysine N-methyltransferase NSD2 (Homo sapiens, UniProt O96028); format: biochemical
T2 sequence (O96028 whole entry): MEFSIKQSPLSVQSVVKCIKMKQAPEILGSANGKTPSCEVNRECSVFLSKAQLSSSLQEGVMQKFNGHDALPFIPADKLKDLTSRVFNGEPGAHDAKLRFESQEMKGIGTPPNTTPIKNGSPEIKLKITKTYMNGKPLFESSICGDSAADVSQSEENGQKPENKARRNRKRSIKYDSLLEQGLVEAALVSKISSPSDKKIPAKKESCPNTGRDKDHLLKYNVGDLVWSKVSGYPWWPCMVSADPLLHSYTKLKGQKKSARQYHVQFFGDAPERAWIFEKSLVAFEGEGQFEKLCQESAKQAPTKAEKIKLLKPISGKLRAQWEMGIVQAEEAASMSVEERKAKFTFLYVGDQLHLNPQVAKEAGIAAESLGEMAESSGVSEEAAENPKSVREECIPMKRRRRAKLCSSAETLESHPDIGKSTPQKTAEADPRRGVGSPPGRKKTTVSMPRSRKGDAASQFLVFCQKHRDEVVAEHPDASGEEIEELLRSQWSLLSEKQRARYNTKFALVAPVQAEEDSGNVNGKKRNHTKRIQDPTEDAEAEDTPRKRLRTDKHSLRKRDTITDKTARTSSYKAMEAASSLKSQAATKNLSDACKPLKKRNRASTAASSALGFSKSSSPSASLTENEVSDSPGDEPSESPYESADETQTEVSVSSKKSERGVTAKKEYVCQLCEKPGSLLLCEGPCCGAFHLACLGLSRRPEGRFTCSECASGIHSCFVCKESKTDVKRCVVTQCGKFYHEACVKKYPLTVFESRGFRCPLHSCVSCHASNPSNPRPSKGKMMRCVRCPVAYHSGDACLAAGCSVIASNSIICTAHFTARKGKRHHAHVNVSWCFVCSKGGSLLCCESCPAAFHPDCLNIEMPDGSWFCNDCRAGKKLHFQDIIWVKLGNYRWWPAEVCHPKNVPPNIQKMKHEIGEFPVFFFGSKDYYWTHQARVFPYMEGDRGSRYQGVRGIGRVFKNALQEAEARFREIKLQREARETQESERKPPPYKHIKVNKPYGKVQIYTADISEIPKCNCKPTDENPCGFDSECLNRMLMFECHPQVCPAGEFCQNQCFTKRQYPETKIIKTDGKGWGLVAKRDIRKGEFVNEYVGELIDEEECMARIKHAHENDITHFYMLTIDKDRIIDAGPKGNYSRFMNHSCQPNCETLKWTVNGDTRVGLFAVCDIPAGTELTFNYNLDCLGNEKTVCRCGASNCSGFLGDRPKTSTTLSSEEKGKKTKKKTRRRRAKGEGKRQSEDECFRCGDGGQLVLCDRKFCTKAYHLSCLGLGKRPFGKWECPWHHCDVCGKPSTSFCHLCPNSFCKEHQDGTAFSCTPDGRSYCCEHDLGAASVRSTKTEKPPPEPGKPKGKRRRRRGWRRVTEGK

[25] = molecular target: T3, High affinity choline transporter 1 (Homo sapiens, UniProt Q9GZV3); assay: CHT inhibitors, dose response, cell-based, 5-point CRC, membrane potential dye (AID 504840); format: functional
T3 sequence (Q9GZV3 whole entry): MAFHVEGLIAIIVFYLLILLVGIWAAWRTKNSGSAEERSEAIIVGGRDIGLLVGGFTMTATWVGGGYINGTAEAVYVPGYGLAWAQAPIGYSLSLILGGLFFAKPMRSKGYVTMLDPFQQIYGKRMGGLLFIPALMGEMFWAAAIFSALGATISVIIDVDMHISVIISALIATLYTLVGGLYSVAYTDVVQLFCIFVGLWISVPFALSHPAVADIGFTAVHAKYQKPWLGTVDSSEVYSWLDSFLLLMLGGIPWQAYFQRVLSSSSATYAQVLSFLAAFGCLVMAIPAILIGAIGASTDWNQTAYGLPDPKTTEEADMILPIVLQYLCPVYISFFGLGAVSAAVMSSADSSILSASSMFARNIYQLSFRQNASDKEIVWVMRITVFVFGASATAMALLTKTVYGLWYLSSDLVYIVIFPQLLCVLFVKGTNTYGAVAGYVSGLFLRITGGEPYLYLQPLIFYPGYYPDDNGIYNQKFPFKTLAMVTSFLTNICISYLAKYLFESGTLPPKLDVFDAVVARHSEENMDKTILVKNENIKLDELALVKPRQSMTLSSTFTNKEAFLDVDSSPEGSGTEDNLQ

Caspase-6, sequence (P55212 24-179 limits assumed): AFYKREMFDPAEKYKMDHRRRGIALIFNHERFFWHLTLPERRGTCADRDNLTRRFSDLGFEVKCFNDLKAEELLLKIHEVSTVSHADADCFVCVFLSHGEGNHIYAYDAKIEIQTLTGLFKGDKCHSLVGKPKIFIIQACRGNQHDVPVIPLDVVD
Caspase-6, sequence (P55212 194-293 limits assumed): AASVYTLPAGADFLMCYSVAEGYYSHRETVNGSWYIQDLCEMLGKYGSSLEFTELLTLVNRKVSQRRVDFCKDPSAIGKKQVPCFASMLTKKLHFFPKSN
Galanin receptor type 3, sequence (O60755 whole entry): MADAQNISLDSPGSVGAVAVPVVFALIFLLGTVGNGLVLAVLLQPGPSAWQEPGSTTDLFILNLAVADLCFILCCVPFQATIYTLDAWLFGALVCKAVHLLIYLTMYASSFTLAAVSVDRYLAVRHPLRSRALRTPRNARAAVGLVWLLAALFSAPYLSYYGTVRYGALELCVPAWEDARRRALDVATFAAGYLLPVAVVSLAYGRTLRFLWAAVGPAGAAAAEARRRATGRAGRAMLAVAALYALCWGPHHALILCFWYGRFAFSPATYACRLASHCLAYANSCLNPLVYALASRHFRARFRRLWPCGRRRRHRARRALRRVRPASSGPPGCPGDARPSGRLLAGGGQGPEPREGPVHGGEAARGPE
Paired box protein Pax-8, sequence (Q06710 whole entry): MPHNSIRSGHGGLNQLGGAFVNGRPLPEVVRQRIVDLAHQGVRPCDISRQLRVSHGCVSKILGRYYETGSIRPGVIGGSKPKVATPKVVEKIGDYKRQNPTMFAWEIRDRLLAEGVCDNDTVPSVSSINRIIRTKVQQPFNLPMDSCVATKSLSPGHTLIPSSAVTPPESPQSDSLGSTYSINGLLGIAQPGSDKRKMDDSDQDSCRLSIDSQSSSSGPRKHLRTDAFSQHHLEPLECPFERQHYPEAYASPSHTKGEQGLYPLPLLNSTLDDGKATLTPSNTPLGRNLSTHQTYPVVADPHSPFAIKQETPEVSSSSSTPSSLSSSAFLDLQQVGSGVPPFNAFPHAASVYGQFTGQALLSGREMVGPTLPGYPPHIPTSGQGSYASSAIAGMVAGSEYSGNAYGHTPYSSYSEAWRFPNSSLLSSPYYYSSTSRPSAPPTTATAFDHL
fMet-Leu-Phe receptor, sequence (P21462 whole entry, the tested form may be a part): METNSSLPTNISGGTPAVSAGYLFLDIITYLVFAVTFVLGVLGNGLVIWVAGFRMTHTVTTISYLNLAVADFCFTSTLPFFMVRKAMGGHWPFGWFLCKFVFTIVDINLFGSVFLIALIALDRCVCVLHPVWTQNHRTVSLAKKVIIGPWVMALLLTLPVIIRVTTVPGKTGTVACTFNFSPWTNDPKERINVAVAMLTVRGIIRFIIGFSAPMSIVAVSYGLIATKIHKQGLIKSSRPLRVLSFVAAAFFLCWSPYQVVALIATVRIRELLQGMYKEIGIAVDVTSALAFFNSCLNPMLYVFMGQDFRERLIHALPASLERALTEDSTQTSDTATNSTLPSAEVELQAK
Melanocortin receptor 4, sequence (P32245 whole entry): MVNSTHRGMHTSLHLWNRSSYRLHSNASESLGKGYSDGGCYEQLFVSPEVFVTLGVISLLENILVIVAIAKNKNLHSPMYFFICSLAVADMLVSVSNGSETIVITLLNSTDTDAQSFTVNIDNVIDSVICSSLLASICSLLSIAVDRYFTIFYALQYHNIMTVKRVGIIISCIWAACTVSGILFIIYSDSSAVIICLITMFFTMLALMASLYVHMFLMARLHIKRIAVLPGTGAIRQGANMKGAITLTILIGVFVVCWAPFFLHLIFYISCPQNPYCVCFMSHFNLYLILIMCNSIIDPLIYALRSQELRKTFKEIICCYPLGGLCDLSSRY
Cytochrome P450 3A4, sequence (P08684 whole entry): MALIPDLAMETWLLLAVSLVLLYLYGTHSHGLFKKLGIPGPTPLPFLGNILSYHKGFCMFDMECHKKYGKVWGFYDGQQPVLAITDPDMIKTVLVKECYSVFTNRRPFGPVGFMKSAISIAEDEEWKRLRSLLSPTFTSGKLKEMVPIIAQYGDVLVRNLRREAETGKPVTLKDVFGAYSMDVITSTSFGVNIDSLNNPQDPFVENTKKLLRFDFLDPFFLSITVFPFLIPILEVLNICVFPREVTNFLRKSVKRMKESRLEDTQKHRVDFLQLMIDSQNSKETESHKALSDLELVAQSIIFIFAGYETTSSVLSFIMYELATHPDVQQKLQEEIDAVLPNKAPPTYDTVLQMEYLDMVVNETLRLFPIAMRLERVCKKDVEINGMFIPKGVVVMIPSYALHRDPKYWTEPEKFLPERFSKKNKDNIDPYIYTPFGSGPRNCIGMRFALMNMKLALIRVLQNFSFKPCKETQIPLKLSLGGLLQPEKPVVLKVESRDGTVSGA

COc1ccc(-c2cc(C(F)(F)F)nc(N3CCCCC3)n2)cc1OC
AC50 (Cytochrome P450 3A4): 25.1 µM (inconclusive) | Ki (fMet-Leu-Phe receptor): > 66.7 µM (inactive)

C#CC(=O)N(c1ccc(OC)cc1OC)C(C(=O)NC1CCCC1)c1cccs1 (configuration not stated)
AC50 [1]: 4.53 µM (active) | AC50 [2]: 14.4 µM (active) | AC50 [3]: 0.839 µM (active) | AC50 [4]: 4.23 µM (active) | AC50 [5]: 6.64 µM (active) | AC50 [6]: 14.8 µM (active) | AC50 [7]: 0.678 µM (active) | AC50 [8]: 3.91 µM (active) | AC50 [9]: 0.631 µM (active) | AC50 [10]: 8.43 µM (active) | AC50 [11]: 9.92 µM (active) | AC50 (Paired box protein Pax-8): < 0.26 µM (active) | AC50 [12]: 7.12 µM (active) | IC50 (Melanocortin receptor 4): > 64.6 µM (inactive) | IC50 (Jurkat): 0.32 µM (active) | AC50 [13]: 4.73 µM (active) | AC50 [14]: 1.87 µM (active) | AC50 [15]: 13.4 µM (active) | AC50 [16]: 1.11 µM (active) | IC50 [17]: 37.3 µM (inactive) | IC50 [18]: > 64.6 µM (inactive)

CC(C)CCOc1cccc(OCC(=O)Nc2ccncc2)c1
AC50 [4]: 48.5 µM (active) | EC50 (cells): > 29.9 µM (inactive) | AC50 [19]: 2.62 µM (active) | AC50 [12]: 0.571 µM (active) | EC50 [20]: 3.63 µM (active) | AC50 [21]: 1.07 µM (active) | EC50 [22]: > 160 µM (inactive) | IC50 (Galanin receptor type 3): 1.06 µM (active) | IC50 [23]: > 80 µM (inactive) | AC50 [16]: 2.72 µM (active)

CC(C)C(=O)C1=Cc2cccc([N+](=O)[O-])c2OC1N1CCOCC1 (configuration not stated)
AC50 (Caspase-6): 43.7 µM (active)

O=C1N/C(=N\c2ccccc2Cl)S/C1=C\c1cccc([N+](=O)[O-])c1O
AC50 [24]: 19.2 µM (active) | AC50 (Caspase-6): 11 µM (active) | IC50 [25]: 12.6 µM (active)
